Experimental data taken from paper PMC12040169 (PLOS Biology, 2025).

Test: in vitro
Conditions: human, hela cells, % viability

| SMILES | viability at 28.5 h, 10 µM [%] |
| --- | --- |
| O=c1[nH]cc(-c2ccccc2)cc1CNc1ccccc1-n1ccnc1 [CBK284769] | 101 |
| O=c1[nH]cc(-c2ccccc2)cc1CNCC1Cc2ccccc2O1 (stereo not shown) [CBK284772] | 92.3 |
| COCCC(=O)NC(Cc1ccsc1)c1nc(C)c(C)s1 (stereo not shown) [CBK284774] | 84.7 |
| Cc1nc(C(Cc2ccsc2)NC(=O)C(C)(C)N)sc1C (stereo not shown) [CBK284775] | 93 |
| Cc1nc(C(Cc2ccsc2)NC(=O)c2cc[nH]n2)sc1C (stereo not shown) [CBK284776] | 85.9 |
| Cc1nc(C(Cc2ccsc2)NC(=O)Cn2ccnc2)sc1C (stereo not shown) [CBK284777] | 102 |
| Cc1nc(C(Cc2ccsc2)NC(=O)c2ccnn2C)sc1C (stereo not shown) [CBK284778] | 87.6 |
| Cc1nc(C(Cc2ccsc2)NC(=O)c2cnn(C)c2)sc1C (stereo not shown) [CBK284779] | 104 |
| OC1(Cn2ccc3ncccc32)CCN(Cc2cccs2)CC1 [CBK284783] | 88.3 |
| CC(C)NC(=O)C1(Cc2ccccc2-c2ccncc2)CCOCC1 [CBK284786] | 94.1 |
| CC(C)(C)Nc1c(C2CCN(C(=O)C3CC3)CC2)nc2ccccn12 [CBK284787] | 104 |
| C[C@]12CN(C3CCSC3)C[C@H]1C(=O)Nc1ccccc1C(=O)N2 (stereo partly shown) [CBK284788] | 90.8 |
| OC1(Cn2cnc3ccccc32)CCN(CCc2ccccc2)CC1 [CBK284789] | 100 |
| O=C(C1CC1)N1C[C@@H](c2ccccc2)[C@H](c2cc(C(F)F)[nH]n2)C1 [CBK284791] | 91.1 |
| CN1C[C@@H](C(=O)N(C)C)[C@@]2(CCc3ccccc3C(=O)N2)C1 [CBK284792] | 102 |
| CN1C[C@@H](C(=O)NC(C)(C)C)[C@@]2(CCc3ccccc3C(=O)N2)C1 [CBK284796] | 99 |
| O=C1NC=CCC12CCCN(S(=O)(=O)c1ccc(F)cc1)C2 (stereo not shown) [CBK284797] | 93.5 |
| O=C1NC2(CCCN(C(=O)c3cccs3)C2)Oc2ccccc21 (stereo not shown) [CBK284799] | 93 |
| CN(C)CC(=O)NC(Cc1ccsc1)c1nccs1 (stereo not shown) [CBK284801] | 91.4 |
| O=C(NC(Cc1cccs1)c1nccs1)C1CSCN1 (stereo not shown) [CBK284805] | 91.4 |
| CC(NC(=O)c1ccc(-n2ccnc2)c(-n2cccc2)c1)c1ccco1 (stereo not shown) [CBK284808] | 98 |

| SMILES | viability at 28.5 h, 10 µM [%] |
| --- | --- |
| O=C(Cn1cccc2cc(-c3ccc(F)cc3)nc1-2)N1CCOCC1 [CBK284809] | 87.5 |
| O=C(c1ccc(-n2ccnc2)c(-n2cccc2)c1)N1CCCCCC1 [CBK284813] | 87.4 |
| O=c1c2ccccc2nc2n1CCN(Cc1cccs1)CC2 [CBK284815] | 92.3 |
| O=c1c2ccccc2nc2n1CCN(Cc1ccc(F)c(F)c1)CC2 [CBK284816] | 96.6 |
| O=c1c2ccccc2nc2n1CCN(Cc1c(F)cccc1F)CC2 [CBK284817] | 88.7 |
| O=c1c2ccccc2nc2n1CCN(Cc1cc(F)ccc1F)CC2 [CBK284818] | 99.1 |
| CC(=O)NC1(c2ccccc2)CCN(CC(O)c2ccccc2)CC1 (stereo not shown) [CBK284819] | 107 |
| CN(C)CCNC(=O)Cn1c(-c2ccc(F)cc2)cc2cccnc21 [CBK284820] | 97.7 |
| Cc1ccc(CN2CCC3(CCCNC3=O)CC2)cc1 [CBK284822] | 90.6 |
| COc1cccc(CN2CCC3(CCCNC3=O)CC2)c1 [CBK284824] | 96.6 |
| O=C1NCCCC12CCN(Cc1ccc3ncccc3c1)CC2 [CBK284825] | 91.4 |
| COc1ccc(F)c(CN2CCC3(CCCNC3=O)CC2)c1 [CBK284827] | 102 |
| O=C1CCN(Cc2ccccc2)CCN1C(=O)C1CCCC1 [CBK284829] | 85.7 |
| Cc1ccc2c(c1)c(=O)cc(C(F)(F)F)n2CCNC(=O)C1CC1 [CBK284831] | 93.1 |
| CC1CCCCN1C(=O)c1ccc(-n2ccnc2)c(-n2cccc2)c1 (stereo not shown) [CBK284832] | 95.5 |
| Cc1ccc2c(c1)CN(C(=O)C1CC1C)CC1(CCN(C)CC1)O2 (stereo not shown) [CBK284833] | 94.5 |
| Cc1ccc2c(c1)C(=O)NCC1(CCN(C(=O)C3CC3)CC1)O2 [CBK284835] | 108 |
| C=Cn1ncc(CN2CCCC(O)(c3ccc(F)cc3)CC2)c1C (stereo not shown) [CBK284837] | 89.3 |
| CCn1cncc1CN1CCCC(O)(c2ccc(F)cc2)CC1 (stereo not shown) [CBK284838] | 90.6 |
| O=C(C1CCOCC1)N1CCCC[C@H]2CN(Cc3ccccc3)C[C@H]21 [CBK284839] | 86.9 |
| Cc1cc(C2CCCCCN2C(=O)c2ccccc2F)on1 (stereo not shown) [CBK284842] | 94.5 |

| SMILES | viability at 28.5 h, 10 µM [%] |
| --- | --- |
| Cc1cc(C2CCCCCN2C(=O)c2nn(C)cc2Cl)on1 (stereo not shown) [CBK284843] | 105 |
| Cc1cc(C2CCCCCN2Cc2c(C)nn(C)c2C)no1 (stereo not shown) [CBK284846] | 87.6 |
| COc1ccccc1CCC(=O)N1CCCc2c(cnn2C)C1 [CBK284847] | 80 |
| CCOC(=O)[C@H]1CC[C@]2(CC1)CN(C)C(=O)c1ccccc1O2 [CBK284848] | 101 |
| CCOC(=O)[C@H]1CC[C@]2(CC1)CNC(=O)c1cc(Cl)ccc1O2 [CBK284849] | 89.9 |
| Cc1nn(C)c(C)c1CCC(=O)N1CCc2ncc(Cl)cc2C1 [CBK284851] | 114 |
| Cc1ncccc1C(=O)N1CCC(c2cc3ccccc3cn2)CC1 [CBK284854] | 113 |
| CCc1n[nH]c(C(=O)N2CCc3ncc(Cl)cc3C2)c1C [CBK284856] | 92.8 |
| O=C1NCC2(CCCN(Cc3ccc(F)cc3)C2)Oc2ccccc21 (stereo not shown) [CBK284857] | 92.7 |
| CCOC(=O)C1C2CCC3(CC(=O)c4cc(Cl)ccc4O3)C21 (stereo not shown) [CBK284858] | 107 |
| O=c1c2cc(F)ccc2nc2n1CCN(Cc1cccs1)CC2 [CBK284859] | 110 |
| O=c1c2cc(F)ccc2nc2n1CCN(Cc1ccsc1)CC2 [CBK284860] | 106 |
| O=C(Cn1c(-c2ccc(F)cc2)cc2cccnc21)NC1CC1 [CBK284861] | 103 |
| O=C(CCn1c(C(F)(F)F)cc2cccnc21)NCc1cccnc1 [CBK284865] | 106 |
| Cn1cc(NC(=O)CCn2c(C(F)(F)F)cc3cccnc32)cn1 [CBK284866] | 92.5 |
| CC(=O)N1C2CCC1CC(O)(Cn1ccc3ccnc(Cl)c31)C2 (stereo not shown) [CBK284868] | 106 |
| O=C(CCn1c(C(F)(F)F)cc2cccnc21)N1CCOCC1 [CBK284869] | 96.4 |
| CC1CCN(C(=O)C2C3CCC4(CC(=O)c5ccccc5O4)C32)CC1 (stereo not shown) [CBK284872] | 98.7 |
| C=CCNC(=O)C1C2CCC3(CC(=O)c4cc(Cl)ccc4O3)C21 (stereo not shown) [CBK284873] | 86.3 |
| CC1CCc2n[nH]c(C(=O)N3CCc4ncc(Cl)cc4C3)c2C1 (stereo not shown) [CBK284874] | 93.6 |
| CN(C)[C@@H]1CN(Cc2cccnc2)C[C@H]1c1cn(C)c2ccccc12 [CBK284875] | 110 |

| SMILES | viability at 28.5 h, 10 µM [%] |
| --- | --- |
| CN1CCCc2cc(CN3CCC4(CCCNC4=O)CC3)ccc21 [CBK284876] | 101 |
| O=C1NCCCC12CCN(Cc1cccc(F)c1F)CC2 [CBK284877] | 91.8 |
| O=C1NCCCC12CCN(Cc1ccccc1N1CCCCC1)CC2 [CBK284878] | 95.5 |
| Cc1ccc2c(c1)C(NC(=O)C1CC1)CC1(CCOCC1)O2 (stereo not shown) [CBK284879] | 93.4 |
| CCOC(=O)C1(Cc2cc(-c3cccc(F)c3)no2)CCNCC1 [CBK284881] | 89.4 |
| Cc1cc(C[C@@H]2COC[C@H]2NCc2cccc(Cl)c2)on1 [CBK284885] | 89.9 |
| CN1C[C@]2(CC[C@@H](C(=O)N3CCCC3)CC2)Oc2ccccc2C1=O [CBK284886] | 103 |
| O=C1CN(C(=O)CCn2c(C(F)(F)F)cc3cccnc32)CCN1 [CBK284888] | 92.8 |
| CCNC(=O)[C@H]1CC[C@]2(CC1)CNC(=O)c1cc(Cl)ccc1O2 [CBK284890] | 95.4 |
| O=C(c1cccnc1)N1CCC(c2cc3ccccc3cn2)CC1 [CBK284891] | 101 |
| O=C(c1cc[nH]n1)N1CCC(c2cc3ccccc3cn2)CC1 [CBK284892] | 91.7 |
| CCOC(=O)[C@H]1CC[C@]2(CC1)CNC(=O)c1ccccc1O2 [CBK284893] | 92.5 |
| CN(C)C(=O)[C@H]1CC[C@]2(CC1)CNC(=O)c1ccccc1O2 [CBK284894] | 92.7 |
| CN1CCN(C(=O)CCn2c(C(F)(F)F)cc3cccnc32)CC1 [CBK284896] | 93.7 |
| Cn1nc(C2CCN(C(=O)c3cccc(F)c3)CC2)c2cccnc21 [CBK284898] | 94 |
| O=C1NCC2(CCCN(C(=O)c3cccs3)C2)Oc2ccccc21 (stereo not shown) [CBK284900] | 102 |
| O=C1NCC2(CCCN(Cc3ccccc3F)C2)Oc2ccccc21 (stereo not shown) [CBK284901] | 95 |
| Fc1ccc(CN2CCC(c3n[nH]c4ncccc34)CC2)cc1 [CBK284902] | 96.2 |
| O=C(c1cccc(F)c1)N1CCC(c2n[nH]c3ncccc23)CC1 [CBK284907] | 109 |
